Experimental data from patent US11234954B2, “Low-dose doxepin for treatment of sleep disorders in elderly patients” (Pernix Sleep, Inc., priority 2006, dated 2022).
Like-named read-outs stand apart in the source and are kept apart here.

Legend:
[1] = in vivo; cited from earlier work
[2] = system: Adult Patients (Ages 18-64) with Primary Insomnia; assay: Adverse events and safety, adult crossover study (Example 3); assay type: in vivo, human
Description: A randomized, multi-center, double-blind, placebo-controlled, four-period crossover, dose-response study was designed to assess the effects of doxepin (1 mg, 3 mg and 6 mg) compared with placebo in patients with primary sleep maintenance insomnia.
Patients who qualified for study entry, based on the screening PSG assessments, were randomized to a treatment sequence using a Latin square design. A final study visit was performed for patients either after completion of the four treatment periods or upon discontinuation from the study. Efficacy assessments were made at each visit and safety assessments were performed throughout the study.
The main inclusion criteria were male and/or female patients, aged 18 to 64 years, in good general health with at least a 3-month history of DSM-IV-defined primary insomnia, reporting each of the following on four of seven nights prior to PSG screening: ≤6.5 hours of total sleep time (TST), ≥60 min of WASO and ≥20 min of LSO. Doxepin HCl 1 mg, 3 mg and 6 mg capsules, and placebo capsules, were provided as a single dose for oral administration.

[3] = system: patients aged 65 years or older with primary sleep maintenance insomnia; assay: Subjective sleep data, elderly crossover study (Example 1); assay type: in vivo, human; details: n = 71
Text: “sWASO” refers to subjective wake after sleep onset (WASO).
“sTST” refers to subjective total sleep time.
“sNAASO” refers to subjective NAASO.
“LSO” refers to “latency to sleep onset, typically expressed in minutes.
The patients report subjected data, which were consistent with the PSG data.

[4] = system: Adult Patients (Ages 18-64) with Primary Insomnia; assay: Subjective sleep parameters, adult crossover study (Example 3); assay type: in vivo, human; details: Per-Protocol N = 61
Text: The primary and secondary efficacy assessments were as described above in Example 1.

[5] = system: patients aged 65 years or older with primary sleep maintenance insomnia; assay: Adverse events and safety, elderly crossover study (Example 1); assay type: in vivo, human
Text: All randomized patients who received at least one dose of double-blind study medication were included in the safety analyses, which were based on observed data.
The adverse events are arranged by system organ class.

[6] = system: primary elderly insomnia patients with sleep maintenance difficulties; assay type: in vivo, human
Description: Subjects were females and males, 65 years of age or older, with at least a 3-month history of primary insomnia (as defined in the Diagnostic and Statistical Manual of Mental Disorders, Fourth Edition, Text Revision), who reported experiencing at least 60 minutes of Wake After Sleep Onset (WASO), at least 30 minutes of Latency to Sleep Onset (LSO), and no more than 6.5 hours of Total Sleep Time (TST) on at least 4 of 7 consecutive nights prior to PSG Screening.
Primary Efficacy Variable: The primary efficacy variable was WASO on Night 1.
Additional PSG Variables: Additional efficacy variables assessed on each PSG recording night during the Double-blind Treatment Period were WASO (Night 15, Night 29, Night 57, and Night 85); WTDS; TST; Sleep Efficiency (SE) overall, by third of the night, the last quarter of the night, and hour of the night; LPS; Latency to Stage 2 Sleep; Number of Awakenings After Sleep Onset (NAASO) overall and by hour; Total Wake Time (TWT) overall and by hour; Wake Time After Sleep (WTAS); and sleep architecture (including percentage and minutes of Stage 1, 2, and 3-4 sleep; percentage and minutes of rapid eye movement [REM] and non-REM sleep; and Latency to REM Sleep.)

CN(C)CCC=C1c2ccccc2COc2ccccc21 (mixture of isomers) [Doxepin]
mean half-life [1]: 17 h | HEADACHE: Number of Events ([2]; 1 mg, N = 66): 3 | HEADACHE: Number of Patients ([2]; 1 mg, N = 66): 3 (5%) | NASAL CONGESTION: Number of Events ([2]; 1 mg, N = 66): 1 | NASAL CONGESTION: Number of Patients ([2]; 1 mg, N = 66): 1 (2%) | HEADACHE: Number of Events ([2]; 3 mg, N = 66): 0 | HEADACHE: Number of Patients ([2]; 3 mg, N = 66): 0 (0%) | NASAL CONGESTION: Number of Events ([2]; 3 mg, N = 66): 0 | NASAL CONGESTION: Number of Patients ([2]; 3 mg, N = 66): 0 (0%) | HEADACHE: Number of Events ([2]; 6 mg, N = 67): 1 | HEADACHE: Number of Patients ([2]; 6 mg, N = 67): 1 (1%) | NASAL CONGESTION: Number of Events ([2]; 6 mg, N = 67): 0 | NASAL CONGESTION: Number of Patients ([2]; 6 mg, N = 67): 0 (0%) | LSO, Mean (SD) ([3]; 1 mg): 42.3 (32.1) | Sleep Quality, Mean (SD) ([3]; 1 mg): 0.8 (1.0) | sNAASO, Mean (SD) ([3]; 1 mg): 3.2 (2.1) | sTST, Mean (SD) ([3]; 1 mg): 355.7 (63.1) | sWASO, Mean (SD) ([3]; 1 mg): 74.3 (55.2) | LSO, Mean (SD) ([3]; 3 mg): 42.4 (40.1) | Sleep Quality, Mean (SD) ([3]; 3 mg): 0.9 (1.0) | sNAASO, Mean (SD) ([3]; 3 mg): 2.9 (1.7) | sTST, Mean (SD) ([3]; 3 mg): 362.4 (64.3) | sWASO, Mean (SD) ([3]; 3 mg): 72.2 (56.4) | LSO, Mean (SD) ([3]; 6 mg): 33.9 (24.8) | Sleep Quality, Mean (SD) ([3]; 6 mg): 0.8 (1.0) | sNAASO, Mean (SD) ([3]; 6 mg): 3.0 (1.4) | sTST, Mean (SD) ([3]; 6 mg): 369.4 (65.3) | sWASO, Mean (SD) ([3]; 6 mg): 71.5 (57.4) | LSO, Mean ([4]; 1 mg): 46.9 min | sTST, Mean ([4]; 1 mg): 364.2 min | sWASO, Mean ([4]; 1 mg): 56.1 min | LSO, Mean ([4]; 3 mg): 46.1 min | sTST, Mean ([4]; 3 mg): 379.7 min | sWASO, Mean ([4]; 3 mg): 50.5 min | LSO, Mean ([4]; 6 mg): 44.1 min | sTST, Mean ([4]; 6 mg): 383.0 min | sWASO, Mean ([4]; 6 mg): 42.1 min | HEADACHE: Number of Events ([5]; 1 mg, N = 74): 0 | HEADACHE: Number of Patients ([5]; 1 mg, N = 74): 0 (0%) | HEADACHE: Number of Events ([5]; 3 mg, N = 75): 0 | HEADACHE: Number of Patients ([5]; 3 mg, N = 75): 0 (0%) | HEADACHE: Number of Events ([5]; 6 mg, N = 74): 0 | HEADACHE: Number of Patients ([5]; 6 mg, N = 74): 0 (0%) | LS mean WASO shorter compared with the placebo group ([6]; Night 1, 1 mg): 17.8 min | LPS, mean (SD) ([6]; Night 1, 1 mg, ITT N = 77): 38.8 (29.58) minutes | SE Overall, mean (SD) ([6]; Night 1, 1 mg, ITT N = 77): 74.8 (11.05) % | TST, mean (SD) ([6]; Night 1, 1 mg, ITT N = 77): 359.1 (53.05) minutes | WTAS, mean (SD) ([6]; Night 1, 1 mg, ITT N = 77): 8.9 (18.84) minutes | WASO, Diff. of LS Mean versus placebo ([6]; Night 1, 1 mg, ITT n = 77): -17.8 min | WASO, Mean (Primary Efficacy Variable) ([6]; Night 1, 1 mg, ITT n = 77): 91.8 min | LS mean WASO shorter compared with the placebo group ([6]; Night 1, 3 mg): 33.8 min | LPS, mean (SD) ([6]; Night 1, 3 mg, ITT N = 82): 28.6 (20.53) minutes | SE Overall, mean (SD) ([6]; Night 1, 3 mg, ITT N = 82): 79.8 (9.21) % | TST, mean (SD) ([6]; Night 1, 3 mg, ITT N = 82): 382.9 (44.23) minutes | WTAS, mean (SD) ([6]; Night 1, 3 mg, ITT N = 82): 4.7 (14.61) minutes | WASO, Diff. of LS Mean versus placebo ([6]; Night 1, 3 mg, ITT n = 82): -33.8 min | WASO, Mean (Primary Efficacy Variable) ([6]; Night 1, 3 mg, ITT n = 82): 74.5 min | LPS, mean (SD) ([6]; Night 85, 1 mg, ITT N = 77): 29.0 (26.45) minutes | SE Overall, mean (SD) ([6]; Night 85, 1 mg, ITT N = 77): 75.1 (9.83) % | TST, mean (SD) ([6]; Night 85, 1 mg, ITT N = 77): 360.5 (47.17) minutes | WTAS, mean (SD) ([6]; Night 85, 1 mg, ITT N = 77): 10.8 (21.78) minutes | WASO, Diff. of LS Mean versus placebo ([6]; Night 85, 1 mg, ITT n = 69): -14.6 min | WASO, Mean ([6]; Night 85, 1 mg, ITT n = 69): 97.0 min | LPS, mean (SD) ([6]; Night 85, 3 mg, ITT N = 82): 37.5 (32.74) minutes | SE Overall, mean (SD) ([6]; Night 85, 3 mg, ITT N = 82): 77.9 (8.80) % | TST, mean (SD) ([6]; Night 85, 3 mg, ITT N = 82): 373.7 (42.24) minutes | WTAS, mean (SD) ([6]; Night 85, 3 mg, ITT N = 82): 5.4 (13.20) minutes | WASO, Diff. of LS Mean versus placebo ([6]; Night 85, 3 mg, ITT n = 74): -33.2 min | WASO, Mean ([6]; Night 85, 3 mg, ITT n = 74): 75.7 min
